Results as given in paper PMC5697638, “Identification of a Potent Phosphoinositide 3‐Kinase Pan Inhibitor Displaying a Strategic Carboxylic Acid Group and Development of Its Prodrugs” (Chemmedchem, 2017).

Columns and labels:
[1] = metabolic stability in rat liver microsomes (RLM); type: in vitro ADME; conditions: RLM, 50 μM substrate, with NADPH; for Residual microsomal substrate (t=60 min): LC–UV
Description: (§1) Twelve esters were prepared (see the Experimental Section for their synthesis and the Supporting Information for chromatographic methods) and evaluated in terms of metabolic stability. For this task, a combined approach based on microsomal and plasmatic stability assays was exploited considering the relevance of the plasmatic and hepatic tissues in esterase activity. Microsomal stability of the selected esters was evaluated by monitoring the disappearance of the substrate incubated in rat liver microsomes (RLM) at 50 μM concentration, in the presence of NADPH. In Table 4, the percentage of the remaining substrate, after incubation (t=60 min), with respect to the initial amount is reported. Overall, the compounds underwent a relevant metabolic transformation, and the substrate depletion ranged from 0 (for 76) to 100 % (for 70). This is mainly due to hydrolysis of the ester function, whereas the metabolites arising from the oxidation catalyzed by the NADPH‐dependent monooxygenase system were negligible from a quantitative point of view. Indeed, the main metabolite formed during the incubation of the esters was corresponding carboxyl derivative 37. […] Moreover, whereas CH2‐pyridin‐4‐yl ester 70 was completely metabolized, corresponding benzyl derivative 65 and piperonyl derivative 72 were more hydrolytically stable, and their residual substrates were 53 and 83 %, respectively. The hydrolytic stability of the selected esters was also evaluated by monitoring the depletion of the substrate incubated at a 50 μM concentration in mouse plasma over a period of 30 min. As expected, the plasmatic metabolic fate of the esters was characterized by the formation of 37 as the only metabolite (see Figure S4). The rate constant k [min^−1], derived for the substrate peak area versus time curve (single‐exponential decay equation—GraphPad Prism software, Inc., San Diego, CA (USA); see Figure S5) was used to calculate the in vitro half‐life t 1/2 [min], and the values are reported in Table 4.
Metabolic stability of PI3K inhibitors in RLM fraction
The standard incubation mixture (500 µL final volume), in 1.5 mL Eppendorf tubes, was carried out in a 50 mM TRIS-HCl buffer (pH 7.4) containing 3.3 mM MgCl2, 1.3 mM NADPNa2, 3.3 mM glucose 6-phosphate, 0.4 Units/mL glucose 6-phosphate dehydrogenase (NADPH regenerating system), acetonitrile as cosolvent (1% of final volume) and 50 µM of substrate. After pre-equilibration of the mixture, an appropriate volume of rat microsomal suspension was added to give a final protein concentration of 1 mg/mL. The mixture was shaken for 1 hour at 37°C and the reaction was quenched by diluting the samples with 500 µL of ice-cold acetonitrile. The samples were then centrifuged at 13,000 rpm for 10 min, and the supernatant was directly injected onto the HPLC column for analysis. Control incubations were performed without microsomes. […]
(§2) A Shimadzu HPLC system (Shimadzu, Kyoto, Japan), consisting of two LC-10AD Vp module pumps, an SLC-10A Vp system controller, an SIL-10AD Vp autosampler, and a DGU-14-A on-line degasser was used for the analysis. All the chromatographic separations were performed on a Phenomenex Luna C18 5µm (150 x 4.6 mm i.d.) (Phenomenex srl, Castel Bolognese, Italy) as a stationary phase protected by a Luna C18 SecurityGuard (Phenomenex srl). The SPD-M10Avp photodiode array detector was used to detect the analyte at 254 nm. LC Solution 1.24 software was used to process the chromatograms. Aliquots (20 µL) of supernatants obtained from incubations were injected onto the HPLC system and eluted with a mobile phase (flow rate: 1 mL/min) consisting of solvent A- 0.5% aqueous formic acid solution and solvent B- acetonitrile/methanol 80:20.
(§3) The eluants were filtered through a 0.45-µm pore size polyvinylidene difluoride membrane […]
(§4) The following gradients programs were used: […]

PC3 cells = experiment: PC3 cell proliferation (MTT); type: cell-based; parameters: key to Cell proliferation: active: Active: able to reduce proliferation to an extent greater than 50 %; inactive: able to reduce proliferation to an extent less than 50 %; conditions: PC3 cells, 10 μM of each prodrug
Description: The biological activity of each prodrug was tested by analyzing their ability to decrease PC3 proliferation as a rapid test to evaluate the PI3Ks inhibitory activity after hydrolysis in a cell‐based assay. […] The choice of using such a cut‐off was due to the intent to identify rapidly which prodrug could be hydrolyzed in the assay to release the active compound. As expected, a good correlation between rate of hydrolysis and cellular activity was observed, and esters 64–68 and 70–73 were determined to be good candidates for topical use. We decided to focus our attention on ester 64, as its half‐life was a good compromise for a prodrug. The EC50 value of this ester was then evaluated on PC3 cells, and a value of (2.3±0.8) μM was obtained.
Cell proliferation: PC3 cell proliferation was measured with a 3‐(4,5‐dimethyl thiazol‐2‐yl)‐2,5‐diphenyltetrazolium bromide (MTT)‐based colorimetric assay (#11 465 007 001 Roche Diagnostic GmbH, Germany). PC3 cells were seeded in a 96‐well plate at a concentration of 10^4 cells mL^−1. PC3 cells were treated for 72 h with increasing concentrations of 64, and MTT was added. After ON solubilization of the MTT metabolite, formazan, the absorbance (λ=550–600 nm absorbance, with a reference wavelength of 650 nm) of each well was read in a multi‐well reader (Glomax multi detection system, Promega, model number 9301‐010). The percentage of proliferating cells was calculated by relating each absolute value to the control intended as PC3 cells treated with DMSO alone. An IC50 value was then derived by plotting all data on a dose–response curve (Graph Pad software) by using nonlinear regression fit (equation [log agonist] versus response).

[2] = stability in mouse plasma; type: in vitro ADME; conditions: 50 μM substrate; for half-life at 50 µM: mouse, mouse plasma, 30 min incubation, 37 °C, read-out: Mouse plasma t 1/2
Description: as §1, with “4. […]” for “4.”
Stability of PI3K inhibitors in mouse plasma
An aliquot of 460 µL of blank plasma spiked with substrate (50 µM, final concentration, DMSO 5%) was incubated at 37 °C for 30 minutes. Aliquots (70 µL) of the incubation took at 0-2-5-10-20, and 30 minutes were diluted with 140 µL of acetonitrile, homogenized, and centrifuged at 13,000 rpm for five minutes. Supernatants (20 µL) were injected onto HPLC.
as §2, §3, §4

[3] = molecular target: T1, human PI3Kα (PIK3CA/PIK3R1) (Homo sapiens, UniProt P42336); experiment: lipid kinase assay (ADP-Glo), PI3Kα; type: biochemical; conditions: determined at 1 μM, at least triplicate; read-out: Inhibitory activity, PI3K isoform α
T1 construct: purchased ProQinase, Germany 1161‐1165‐1
T1 sequence (P42336 whole entry, canonical isoform): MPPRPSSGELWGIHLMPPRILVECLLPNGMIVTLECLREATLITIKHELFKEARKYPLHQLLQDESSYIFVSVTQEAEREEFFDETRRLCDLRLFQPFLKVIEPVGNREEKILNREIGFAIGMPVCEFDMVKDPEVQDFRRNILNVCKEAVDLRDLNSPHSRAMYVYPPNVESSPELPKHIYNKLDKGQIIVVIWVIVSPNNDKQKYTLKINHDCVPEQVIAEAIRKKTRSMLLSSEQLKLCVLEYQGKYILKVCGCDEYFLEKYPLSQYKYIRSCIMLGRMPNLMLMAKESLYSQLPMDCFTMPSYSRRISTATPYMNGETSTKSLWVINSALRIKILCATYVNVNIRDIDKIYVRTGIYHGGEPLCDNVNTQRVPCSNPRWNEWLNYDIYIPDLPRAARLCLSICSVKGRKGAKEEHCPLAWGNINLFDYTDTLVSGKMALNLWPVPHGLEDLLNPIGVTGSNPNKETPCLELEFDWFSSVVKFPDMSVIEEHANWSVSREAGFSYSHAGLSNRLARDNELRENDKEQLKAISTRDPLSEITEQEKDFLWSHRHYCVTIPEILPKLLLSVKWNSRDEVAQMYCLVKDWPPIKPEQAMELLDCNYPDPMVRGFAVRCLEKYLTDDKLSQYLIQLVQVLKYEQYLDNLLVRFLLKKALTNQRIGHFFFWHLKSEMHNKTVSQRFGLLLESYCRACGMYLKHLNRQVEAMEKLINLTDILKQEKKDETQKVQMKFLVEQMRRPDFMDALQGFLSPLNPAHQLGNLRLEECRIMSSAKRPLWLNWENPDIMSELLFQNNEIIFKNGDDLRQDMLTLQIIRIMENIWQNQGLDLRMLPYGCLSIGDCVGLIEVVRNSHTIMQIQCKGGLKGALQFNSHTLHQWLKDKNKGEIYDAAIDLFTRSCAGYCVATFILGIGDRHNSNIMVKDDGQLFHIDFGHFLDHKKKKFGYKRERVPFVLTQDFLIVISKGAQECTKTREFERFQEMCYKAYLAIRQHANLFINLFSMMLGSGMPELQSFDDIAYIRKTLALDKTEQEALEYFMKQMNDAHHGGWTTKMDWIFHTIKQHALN
T1 sequence (P27986 whole entry partner, canonical isoform): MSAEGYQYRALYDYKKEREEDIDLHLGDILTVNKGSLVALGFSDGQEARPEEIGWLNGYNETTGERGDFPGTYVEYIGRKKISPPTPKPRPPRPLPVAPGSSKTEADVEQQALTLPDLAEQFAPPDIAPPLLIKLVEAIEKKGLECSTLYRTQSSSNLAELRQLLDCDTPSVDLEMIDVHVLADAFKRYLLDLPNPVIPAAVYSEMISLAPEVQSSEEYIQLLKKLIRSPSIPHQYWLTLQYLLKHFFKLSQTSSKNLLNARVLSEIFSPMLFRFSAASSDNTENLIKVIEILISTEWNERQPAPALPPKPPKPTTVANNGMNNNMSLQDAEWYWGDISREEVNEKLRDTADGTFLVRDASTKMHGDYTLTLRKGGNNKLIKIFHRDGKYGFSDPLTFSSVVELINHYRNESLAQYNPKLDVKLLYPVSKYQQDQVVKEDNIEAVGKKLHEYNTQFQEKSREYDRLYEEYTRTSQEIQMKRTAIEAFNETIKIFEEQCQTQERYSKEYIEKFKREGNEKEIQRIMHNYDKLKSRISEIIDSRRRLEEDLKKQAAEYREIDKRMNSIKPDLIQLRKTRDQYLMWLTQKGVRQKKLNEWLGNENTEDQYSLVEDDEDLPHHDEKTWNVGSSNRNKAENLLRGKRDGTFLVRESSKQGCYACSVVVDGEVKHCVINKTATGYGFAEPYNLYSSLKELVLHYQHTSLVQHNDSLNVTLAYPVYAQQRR

hPI3Kγ (PIK3CG) = molecular target: T2, hPI3Kγ (PIK3CG) (Homo sapiens, UniProt P48736); experiment: lipid kinase assay (ADP-Glo), PI3Kγ; type: biochemical; conditions: determined at 1 μM, at least triplicate; read-out: Inhibitory activity, PI3K isoform γ
T2 construct: purchased ProQinase, Germany 1163‐0000‐1
T2 sequence (P48736 whole entry, canonical isoform): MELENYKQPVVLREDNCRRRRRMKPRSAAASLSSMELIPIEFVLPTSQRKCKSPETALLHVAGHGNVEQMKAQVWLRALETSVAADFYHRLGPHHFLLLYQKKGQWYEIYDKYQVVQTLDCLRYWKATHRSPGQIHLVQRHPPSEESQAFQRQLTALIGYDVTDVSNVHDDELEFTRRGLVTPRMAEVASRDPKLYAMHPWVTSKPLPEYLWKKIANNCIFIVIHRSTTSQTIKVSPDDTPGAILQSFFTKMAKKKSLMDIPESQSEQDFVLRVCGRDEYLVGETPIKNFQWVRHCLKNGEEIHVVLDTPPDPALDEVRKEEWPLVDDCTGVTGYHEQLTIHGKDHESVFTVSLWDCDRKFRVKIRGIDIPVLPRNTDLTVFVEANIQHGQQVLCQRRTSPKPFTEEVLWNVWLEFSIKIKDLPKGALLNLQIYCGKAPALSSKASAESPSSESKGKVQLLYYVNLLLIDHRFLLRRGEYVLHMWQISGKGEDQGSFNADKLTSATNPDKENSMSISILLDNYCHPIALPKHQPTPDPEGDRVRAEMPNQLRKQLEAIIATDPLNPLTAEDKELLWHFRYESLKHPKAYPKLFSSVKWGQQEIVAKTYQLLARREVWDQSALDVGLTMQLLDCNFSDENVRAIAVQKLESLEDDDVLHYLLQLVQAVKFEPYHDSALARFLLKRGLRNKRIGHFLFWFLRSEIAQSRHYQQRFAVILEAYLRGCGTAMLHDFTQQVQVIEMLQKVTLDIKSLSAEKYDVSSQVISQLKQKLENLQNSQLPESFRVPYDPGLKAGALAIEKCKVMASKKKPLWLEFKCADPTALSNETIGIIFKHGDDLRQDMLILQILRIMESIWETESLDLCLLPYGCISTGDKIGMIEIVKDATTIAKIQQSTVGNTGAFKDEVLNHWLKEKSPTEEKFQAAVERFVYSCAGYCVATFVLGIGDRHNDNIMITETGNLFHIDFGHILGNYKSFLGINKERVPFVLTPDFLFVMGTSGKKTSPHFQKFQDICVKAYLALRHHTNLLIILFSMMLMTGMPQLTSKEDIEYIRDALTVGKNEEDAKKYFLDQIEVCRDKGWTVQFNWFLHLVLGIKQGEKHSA

[4] = molecular target: T3, hPI3Kβ (PIK3CB wt/PIK3R1) (Homo sapiens, UniProt P42338); experiment: lipid kinase assay (ADP-Glo), PI3Kβ; type: biochemical; conditions: determined at 1 μM, at least triplicate; read-out: Inhibitory activity, PI3K isoform β
T3 construct: purchased ProQinase, Germany 1168‐1165‐1
T3 sequence (P42338 whole entry, canonical isoform): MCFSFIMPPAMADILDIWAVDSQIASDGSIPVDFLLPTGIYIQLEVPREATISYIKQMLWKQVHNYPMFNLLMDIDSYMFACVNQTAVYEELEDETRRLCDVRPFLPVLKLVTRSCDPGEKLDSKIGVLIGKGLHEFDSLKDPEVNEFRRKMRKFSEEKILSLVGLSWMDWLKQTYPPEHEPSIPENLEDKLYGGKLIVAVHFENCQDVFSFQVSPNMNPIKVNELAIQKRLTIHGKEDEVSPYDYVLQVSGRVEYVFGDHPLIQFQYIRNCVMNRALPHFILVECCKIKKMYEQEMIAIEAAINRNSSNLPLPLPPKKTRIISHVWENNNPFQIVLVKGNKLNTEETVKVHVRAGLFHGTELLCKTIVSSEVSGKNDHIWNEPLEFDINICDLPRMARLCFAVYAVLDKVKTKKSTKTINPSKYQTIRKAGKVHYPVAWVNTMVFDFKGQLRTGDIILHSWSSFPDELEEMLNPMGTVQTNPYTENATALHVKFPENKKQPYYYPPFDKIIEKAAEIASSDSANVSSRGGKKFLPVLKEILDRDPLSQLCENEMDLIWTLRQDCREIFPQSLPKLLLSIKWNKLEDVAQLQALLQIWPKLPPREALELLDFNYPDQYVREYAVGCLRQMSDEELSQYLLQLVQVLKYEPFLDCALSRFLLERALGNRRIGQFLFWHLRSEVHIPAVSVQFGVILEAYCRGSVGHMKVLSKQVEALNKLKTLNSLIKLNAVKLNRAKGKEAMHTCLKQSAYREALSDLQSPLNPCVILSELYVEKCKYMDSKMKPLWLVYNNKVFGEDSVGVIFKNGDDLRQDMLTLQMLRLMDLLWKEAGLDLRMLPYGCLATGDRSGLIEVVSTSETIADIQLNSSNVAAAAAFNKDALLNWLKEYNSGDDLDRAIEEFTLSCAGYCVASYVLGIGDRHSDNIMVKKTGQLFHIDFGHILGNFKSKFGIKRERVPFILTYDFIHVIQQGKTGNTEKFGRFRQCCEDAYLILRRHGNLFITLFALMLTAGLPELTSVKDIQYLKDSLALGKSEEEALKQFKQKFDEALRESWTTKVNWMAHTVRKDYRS
T3 sequence (P27986 whole entry partner, canonical isoform): as the sequence (P27986 whole entry partner, canonical isoform) above

hPI3Kδ (PIK3CD/PIK3R1) = molecular target: T4, hPI3Kδ (PIK3CD/PIK3R1) (Homo sapiens, UniProt O00329); experiment: lipid kinase assay (ADP-Glo), PI3Kδ; type: biochemical; conditions: determined at 1 μM, at least triplicate; read-out: Inhibitory activity, PI3K isoform δ
T4 construct: purchased ProQinase, Germany 1162–1165‐1
T4 sequence (O00329 whole entry, canonical isoform): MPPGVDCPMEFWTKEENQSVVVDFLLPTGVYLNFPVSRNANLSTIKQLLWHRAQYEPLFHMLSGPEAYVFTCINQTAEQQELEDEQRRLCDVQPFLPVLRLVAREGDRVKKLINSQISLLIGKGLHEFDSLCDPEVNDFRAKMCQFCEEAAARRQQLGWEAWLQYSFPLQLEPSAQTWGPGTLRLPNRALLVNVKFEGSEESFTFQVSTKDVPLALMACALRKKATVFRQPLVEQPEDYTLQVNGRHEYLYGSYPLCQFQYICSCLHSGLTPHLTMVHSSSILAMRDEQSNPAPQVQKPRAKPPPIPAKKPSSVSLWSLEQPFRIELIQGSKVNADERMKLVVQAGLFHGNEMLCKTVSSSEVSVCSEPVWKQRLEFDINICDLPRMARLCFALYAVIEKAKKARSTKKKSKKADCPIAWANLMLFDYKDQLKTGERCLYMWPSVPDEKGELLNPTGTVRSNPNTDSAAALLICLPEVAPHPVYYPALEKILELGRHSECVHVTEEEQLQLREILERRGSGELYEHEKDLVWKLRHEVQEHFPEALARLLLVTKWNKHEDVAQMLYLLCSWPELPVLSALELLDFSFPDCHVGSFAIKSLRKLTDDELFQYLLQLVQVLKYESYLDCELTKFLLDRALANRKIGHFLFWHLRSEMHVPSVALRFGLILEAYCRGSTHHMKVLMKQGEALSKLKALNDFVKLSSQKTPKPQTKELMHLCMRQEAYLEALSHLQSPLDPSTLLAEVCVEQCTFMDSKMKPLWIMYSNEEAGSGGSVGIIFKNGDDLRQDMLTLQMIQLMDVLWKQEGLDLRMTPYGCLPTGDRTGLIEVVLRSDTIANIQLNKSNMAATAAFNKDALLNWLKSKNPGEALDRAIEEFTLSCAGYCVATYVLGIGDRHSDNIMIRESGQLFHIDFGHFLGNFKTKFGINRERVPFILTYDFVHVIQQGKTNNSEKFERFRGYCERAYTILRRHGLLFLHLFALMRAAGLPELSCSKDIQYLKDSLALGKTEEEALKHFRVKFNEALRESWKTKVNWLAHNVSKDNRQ
T4 sequence (P27986 whole entry partner, canonical isoform): as the sequence (P27986 whole entry partner, canonical isoform) above

Residual microsomal substrate (t=60 min) [1] | half-life at 50 µM [2] | substrate depletion ([1]; 60 min) | hydrolysis by mouse plasma hydrolases ([2]; 30 min) | inhibition at 1 µM [3] | inhibition at 1 µM (hPI3Kγ (PIK3CG)) | inhibition at 1 µM [4] | inhibition at 1 µM (hPI3Kδ (PIK3CD/PIK3R1)) | Structure (SMILES) | Cell proliferation (PC3 cells)
53% | < 1 min | – | – | – | – | – | – | CCCCOC(=O)c1cccc(Cn2cc(-c3cccc4c(=O)cc(N5CCOCC5)[nH]c34)nn2)c1 [Compound 68, Butyl 3‐{[4‐(2‐morpholino‐4‐oxo‐1,4‐dihydroquinolin‐8‐yl)‐1H‐1,2,3‐triazol‐1‐yl]methyl}benzoate] | active
53% | < 1 min | – | – | – | – | – | – | O=C(OCc1ccccc1)c1cccc(Cn2cc(-c3cccc4c(=O)cc(N5CCOCC5)[nH]c34)nn2)c1 [Compound 65, Benzyl 3‐{[4‐(2‐morpholino‐4‐oxo‐1,4‐dihydroquinolin‐8‐yl)‐1H‐1,2,3‐triazol‐1‐yl]methyl}benzoate] | active
39% | < 1 min | – | – | – | – | – | – | CC(C)CCOC(=O)c1cccc(Cn2cc(-c3cccc4c(=O)cc(N5CCOCC5)[nH]c34)nn2)c1 [Compound 73, Isopentyl 3‐{[4‐(2‐morpholino‐4‐oxo‐1,4‐dihydroquinolin‐8‐yl)‐1H‐1,2,3‐triazol‐1‐yl]methyl}benzoate] | active
16% | 15.1 min | – | – | – | – | – | – | CC(C)OC(=O)c1cccc(Cn2cc(-c3cccc4c(=O)cc(N5CCOCC5)[nH]c34)nn2)c1 [Compound 66, Isopropyl 3‐{[4‐(2‐morpholino‐4‐oxo‐1,4‐dihydroquinolin‐8‐yl)‐1H‐1,2,3‐triazol‐1‐yl]methyl}benzoate] | active
18% | 2.5 min | – | – | – | – | – | – | O=C(OCCN1CCOCC1)c1cccc(Cn2cc(-c3cccc4c(=O)cc(N5CCOCC5)[nH]c34)nn2)c1 [Compound 71, 2‐Morpholinoethyl 3‐{[4‐(2‐morpholino‐4‐oxo‐1,4‐dihydroquinolin‐8‐yl)‐1H‐1,2,3‐triazol‐1‐yl]methyl}benzoate] | active
24% | – | – | – | – | – | – | – | CCOC(=O)c1cccc(Cn2cc(-c3cccc4c(=O)cc(N5CCOCC5)[nH]c34)nn2)c1 [Compound 67, Ethyl 3‐{[4‐(2‐morpholino‐4‐oxo‐1,4‐dihydroquinolin‐8‐yl)‐1H‐1,2,3‐triazol‐1‐yl]methyl}benzoate] | active
83% | < 1 min | – | – | – | – | – | – | O=C(OCc1ccc2c(c1)OCO2)c1cccc(Cn2cc(-c3cccc4c(=O)cc(N5CCOCC5)[nH]c34)nn2)c1 [Compound 72, Benzo[d][1,3]dioxol‐5‐yl methyl 3‐{[4‐(2‐morpholino‐4‐oxo‐1,4‐dihydroquinolin‐8‐yl)‐1H‐1,2,3‐triazol‐1‐yl]methyl}benzoate] | active
60% | 4.2 min | – | – | – | – | – | – | CCCC(C)OC(=O)c1cccc(Cn2cc(-c3cccc4c(=O)cc(N5CCOCC5)[nH]c34)nn2)c1 (centres unmarked) [Compound 74, Pentan‐2‐yl 3‐{[4‐(2‐morpholino‐4‐oxo‐1,4‐dihydroquinolin‐8‐yl)‐1H‐1,2,3‐triazol‐1‐yl]methyl}benzoate] | inactive
100% | – | 0% | inert to the mouse plasma hydrolases | – | – | – | – | CCCCCCCCCCCCCCCCCCOC(=O)c1cccc(Cn2cc(-c3cccc4c(=O)cc(N5CCOCC5)[nH]c34)nn2)c1 [Compound 76, Octadecyl 3‐{[4‐(2‐morpholino‐4‐oxo‐1,4‐dihydroquinolin‐8‐yl)‐1H‐1,2,3‐triazol‐1‐yl]methyl}benzoate] | inactive
– | – | – | – | < 50% | < 50% | < 50% | < 50% | COc1ccc(-n2cc(-c3cccc4c(=O)cc(N5CCOCC5)[nH]c34)nn2)cc1OC [Compound 43, 8‐[1‐(3,4‐Dimethoxyphenyl)‐1H‐1,2,3‐triazol‐4‐yl]‐2‐morpholinoquinolin‐4(1H)‐one] | –
– | – | – | – | < 50% | < 50% | < 50% | < 50% | O=c1cc(N2CCOCC2)[nH]c2c(-c3cn(-c4cnc5ccccc5c4)nn3)cccc12 [Compound 36, 2‐Morpholino‐8‐[1‐(quinolin‐3‐yl)‐1H‐1,2,3‐triazol‐4‐yl]quinolin‐4(1H)‐one] | –
